Laboratory results taken from ChEMBL document CHEMBL6092168, “Identification of novel indolinone derivatives as CTSC inhibitors to treat inflammatory bowel disease by modulating inflammatory factors” (Eur J Med Chem, 2024).
The source made the active and inactive calls. No cut-off for these calls is given here.

What was measured:
RAW264.7 [1] = test: Anti-inflammatory activity in mouse RAW264.7 cells assessed as inhibition of LPS-induced IL-1beta production at 5 uM preincubated for 1 hr followed by LPS addition and measured after 24 hrs by ELISA relative to control; format: functional
Dipeptidyl peptidase 1 = Dipeptidyl peptidase 1 (Homo sapiens, UniProt P53634); test: Inhibition of human recombinant Cathepsin C using Gly-Phe-AFC as substrate preincubated for 3 hrs followed by substrate addition and measured after 1 hr by fluorescence based multifunctional microplate reader analysis
Chain of Dipeptidyl peptidase 1 (P53634 25-134 limits assumed): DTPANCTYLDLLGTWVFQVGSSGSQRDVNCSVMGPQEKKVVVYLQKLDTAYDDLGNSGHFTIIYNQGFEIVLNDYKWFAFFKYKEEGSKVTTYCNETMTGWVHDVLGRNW
Chain of Dipeptidyl peptidase 1 (P53634 231-394 limits assumed): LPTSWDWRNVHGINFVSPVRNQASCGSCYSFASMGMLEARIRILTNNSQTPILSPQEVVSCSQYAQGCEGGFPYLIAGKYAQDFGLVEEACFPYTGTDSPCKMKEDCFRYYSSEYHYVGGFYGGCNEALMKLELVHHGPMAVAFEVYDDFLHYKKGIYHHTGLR
Chain of Dipeptidyl peptidase 1 (P53634 395-463 limits assumed): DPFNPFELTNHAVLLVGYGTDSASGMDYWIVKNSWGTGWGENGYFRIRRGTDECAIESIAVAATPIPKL

RAW264.7 [2] = test: Anti-inflammatory activity in mouse RAW264.7 cells assessed as inhibition of LPS-induced NO production preincubated for 1 hr followed by LPS addition and measured after 24 hrs by Griess reagent based assay; format: functional, cell-based
RAW264.7 [3] = test: Anti-inflammatory activity in mouse RAW264.7 cells assessed as inhibition of LPS-induced TNF-alpha production at 5 uM preincubated for 1 hr followed by LPS addition and measured after 24 hrs by ELISA relative to control; format: functional

**Q.** With `Nc1ccccc1NC(=O)c1cccc(-c2ccc(CN3CCOCC3)cc2)c1` as the compound, how does the Activity (RAW264.7 [1]; time 25.0 hrs) read?
**A.** inactive

**Q.** And the IC50 (Dipeptidyl peptidase 1)?
**A.** > 1000 nM

**Q.** What about the IC50 (RAW264.7 [2]) of the same compound?
**A.** > 50000 nM

**Q.** What about the Activity (RAW264.7 [3]; time 25.0 hrs) of the same compound?
**A.** inactive

**Q.** What does the source list for `O=C1Nc2c(cccc2-c2ccc(C(F)(F)F)cc2)/C1=C/c1ccnc2ccccc12`?
**A.** Activity (RAW264.7 [1]; time 25.0 hrs): inactive; IC50 (Dipeptidyl peptidase 1): > 1000 nM; IC50 (RAW264.7 [2]): > 50000 nM; Activity (RAW264.7 [3]; time 25.0 hrs): inactive

**Q.** How did the Activity (RAW264.7 [1]; time 25 hrs) turn out when `COc1cccc(NC(=O)c2cccc(-c3ccc(CN4CCOCC4)cc3)c2)c1` was run?
**A.** 25.5%

**Q.** What about the IC50 (Dipeptidyl peptidase 1) of the same compound?
**A.** 486 nM

**Q.** What about the IC50 (RAW264.7 [2]) of the same compound?
**A.** > 50000 nM

**Q.** What about the Activity (RAW264.7 [3]; time 25 hrs) of the same compound?
**A.** 20.4%

**Q.** For `COc1ccc(-c2cccc3c2NC(=O)/C3=C\c2ccnc3ccccc23)cc1`, which Activity (RAW264.7 [1]; time 25.0 hrs) is on record?
**A.** inactive

**Q.** And the IC50 (Dipeptidyl peptidase 1)?
**A.** > 1000 nM

**Q.** What about the IC50 (RAW264.7 [2]) of the same compound?
**A.** > 50000 nM

**Q.** And the Activity (RAW264.7 [3]; time 25.0 hrs)?
**A.** inactive

**Q.** How did the Activity (RAW264.7 [1]; time 25.0 hrs) turn out when `CC(C)c1ccc(-c2cccc3c2NC(=O)/C3=C\c2ccnc3ccccc23)cc1` was run?
**A.** inactive

**Q.** And the IC50 (Dipeptidyl peptidase 1)?
**A.** > 1000 nM

**Q.** And the IC50 (RAW264.7 [2])?
**A.** > 50000 nM

**Q.** And the Activity (RAW264.7 [3]; time 25.0 hrs)?
**A.** inactive

**Q.** `CCc1cccc(NC(=O)c2cccc(-c3ccc(CN4CCOCC4)cc3)c2)c1` was tested. Which Activity (RAW264.7 [1]; time 25.0 hrs) did it give?
**A.** inactive

**Q.** And the IC50 (Dipeptidyl peptidase 1)?
**A.** > 1000 nM

**Q.** And the IC50 (RAW264.7 [2])?
**A.** > 50000 nM

**Q.** What about the Activity (RAW264.7 [3]; time 25.0 hrs) of the same compound?
**A.** inactive

**Q.** `O=C1Nc2c(cccc2-c2ccc(Cl)cc2)/C1=C/c1ccnc2ccccc12` was tested. Which Activity (RAW264.7 [1]; time 25.0 hrs) did it give?
**A.** inactive

**Q.** What about the IC50 (Dipeptidyl peptidase 1) of the same compound?
**A.** > 1000 nM

**Q.** And the IC50 (RAW264.7 [2])?
**A.** > 50000 nM

**Q.** What about the Activity (RAW264.7 [3]; time 25.0 hrs) of the same compound?
**A.** inactive

**Q.** With `O=C1Nc2c(cccc2-c2ccc3cn[nH]c3c2)/C1=C/c1ccnc2ccccc12` as the compound, how does the Activity (RAW264.7 [1]; time 25 hrs) read?
**A.** 65.3%

**Q.** What about the IC50 (Dipeptidyl peptidase 1) of the same compound?
**A.** 311 nM

**Q.** And the IC50 (RAW264.7 [2])?
**A.** 14800 nM

**Q.** And the Activity (RAW264.7 [3]; time 25 hrs)?
**A.** 43.3%

**Q.** How did the Activity (RAW264.7 [1]; time 25 hrs) turn out when `Nc1c(C(=O)Nc2ccnc3ccccc23)cccc1-c1ccc(CN2CCOCC2)cc1` was run?
**A.** 80.9%

**Q.** What about the IC50 (Dipeptidyl peptidase 1) of the same compound?
**A.** 145 nM

**Q.** And the IC50 (RAW264.7 [2])?
**A.** 6400 nM

**Q.** And the Activity (RAW264.7 [3]; time 25 hrs)?
**A.** 75.2%

**Q.** For `O=C1Nc2c(cccc2-c2ccc(N3CCOCC3)cc2)/C1=C/c1ccnc2ccccc12`, which Activity (RAW264.7 [1]; time 25.0 hrs) is on record?
**A.** inactive

**Q.** What about the IC50 (Dipeptidyl peptidase 1) of the same compound?
**A.** 537 nM

**Q.** And the IC50 (RAW264.7 [2])?
**A.** 11300 nM

**Q.** And the Activity (RAW264.7 [3]; time 25.0 hrs)?
**A.** inactive

**Q.** How did the Activity (RAW264.7 [1]; time 25.0 hrs) turn out when `CNC(=O)c1ccccc1NC(=O)c1cccc(-c2ccc(CN3CCOCC3)cc2)c1` was run?
**A.** inactive

**Q.** And the IC50 (Dipeptidyl peptidase 1)?
**A.** > 1000 nM

**Q.** What about the IC50 (RAW264.7 [2]) of the same compound?
**A.** > 50000 nM

**Q.** And the Activity (RAW264.7 [3]; time 25.0 hrs)?
**A.** inactive

**Q.** Which results are given for `O=C(Nc1nccc2ccccc12)c1cccc(-c2ccc(CN3CCOCC3)cc2)n1`?
**A.** Activity (RAW264.7 [1]; time 25.0 hrs): inactive; IC50 (Dipeptidyl peptidase 1): 244 nM; IC50 (RAW264.7 [2]): > 50000 nM; Activity (RAW264.7 [3]; time 25.0 hrs): inactive

**Q.** With `CC(C)c1cccc(NC(=O)c2cccc(-c3ccc(CN4CCOCC4)cc3)c2)c1` as the compound, how does the Activity (RAW264.7 [1]; time 25.0 hrs) read?
**A.** inactive

**Q.** What about the IC50 (Dipeptidyl peptidase 1) of the same compound?
**A.** > 1000 nM

**Q.** And the IC50 (RAW264.7 [2])?
**A.** > 50000 nM

**Q.** What about the Activity (RAW264.7 [3]; time 25.0 hrs) of the same compound?
**A.** inactive

**Q.** `Cc1ccc(-c2cccc3c2NC(=O)/C3=C\c2ccnc3ccccc23)cc1` was tested. Which Activity (RAW264.7 [1]; time 25.0 hrs) did it give?
**A.** inactive

**Q.** What about the IC50 (Dipeptidyl peptidase 1) of the same compound?
**A.** > 1000 nM

**Q.** And the IC50 (RAW264.7 [2])?
**A.** 18700 nM

**Q.** What about the Activity (RAW264.7 [3]; time 25.0 hrs) of the same compound?
**A.** inactive
